Measured values reported in US20260201420A1, “HOMOLOGY-INDEPENDENT TARGETED DNA INSERTION IN HUMAN T CELLS” (The Board of Trustees of The Leland Stanford Junior …, priority 2022, published 2026).

Assays:
TRAC = assay: IN&OUT PCR and Sanger sequencing of knock-in junctions; design: species or system human; conditions: IN&OUT PCR, Sanger sequencing
Protocol: Genomic DNA was extracted using the PureLink Genomic DNA Mini Kit (Invitrogen). Primers flanking the insertion sites of HITI1c and binding outside the respective homology arm sequence of HDR2c as well as primers binding within the inserted sequences were designed using Primer3Plus (www.primer3plus.com). Phusion Hot Start Flex 2× Mastermix (NEB) was used to amplify genomic regions of interest and DNA gel electrophoresis was conducted using the E-Gel Power Snap System (Thermo Scientific). Samples were shipped to ELIM BIOPHARM for Sanger sequencing. Sequences were aligned for analysis using snapgene.

primary human T cells [1] = assay: CRISPR knock-in of GD2-CAR into TRAC in activated T cells (HDR vs HITI plasmid templates), flow cytometry and cell counts; type: cell-based; conditions: for knock-in frequencies (mean frequencies): GD2-CAR into TRAC, activated T cells electroporated day 2, flow cytometry day 10, n=4 donors
Protocol: (§1) Fresh Leukopaks were obtained from STEMCELL Technologies and processed for negative selection using the EasySep Human T Cell Isolation Kit. Cells were activated using Dynabeads Human T-Activator CD3/CD28 (Thermo Fisher) at a 1:1 ratio and cultivated in TexMACS media supplemented with human IL-7 at 12.5 ng/ml and IL-15 at 12.5 ng/ml (all Miltenyi Biotec) as well as 3% human male AB Serum (Access Cell Culture). The culture volume was expanded over time to maintain cells at a concentration of ^~1.5×10^6/ml using G-Rex 24-well and 6-well plates or G-Rex 100M according to manufacturer's instructions (Wilson-Wolf). Small molecule inhibitors AZD0156 (Selleck Chemicals) and Methotrexate (Sigma Aldrich) were resuspended in DMSO and added to the cell culture media as indicated.
Plasmid DNA was optimized for gene therapeutic application and consisted of two components: R6K origin of replication and an anti-Levansucrase antisense RNA to allow for an antibiotic-free selection. This ^~430 bp backbone prevents transgene silencing after genomic insertion^40,43,44. Knock-In templates were synthesized at Genscript and flanking cut sites for NheI and KpnI were used to clone synthetic genes into plasmid backbones. To introduce RNP cut sites within the plasmid DNA, the genomic target of the respective RNP was included into the above mentioned synthetic gene.
(§2) On day 2, unless otherwise indicated, Dynabeads were magnetically removed and cells were counted prior to electroporation on the Maxcyte GTx. For electroporation cells were washed once in Electroporation Buffer (Maxcyte) and then resuspended at 2×10^8/ml for small scale experiments or in 2.4 ml for large-scale electroporation. Wildtype Cas9 (61 μM, IDT) and sgRNA (125 μM, IDT) were mixed vol 1:1 resulting in a molar ratio of 2:1 and incubated for 10 min. at room temperature. Hereafter indicated amounts of plasmid DNA (3 mg/ml) were added to the RNP and incubated for at least 10 min. to allow the RNP to cut the plasmid DNA. For small-scale experiments 5×10^6 T cells were resuspended in 25 μl and 1.25 μl of RNP and respective amounts of plasmid DNA were added. Cells were then transferred into OC-25×3 processing assemblies and electroporated using the Expanded T cell 4 protocol for activated T cells or the Resting T cell 14-3 protocol for electroporation of non-activated T cells, which were stimulated after electroporation with Dynabeads at a 1:1 ratio. Small scale experiments for GPC2 CAR knock-in were conducted using the OC100×2 processing assembly with a final reaction volume of 100 μl. For large scale experiments the GMP compatible CL1.1 assembly was used. Post electroporation cells were rested in electroporation buffer either in the processing assembly (OC-25×3, OC-100×2) or in G-Rex 6-well plates (CL1.1) for 30 min. before being transferred into final G-Rex vessels.
(§3) Cell counts and Viability were obtained using the Nexcelom Cellometer Auto 2000. Samples were mixed with AO/PI dye at a 1:1 volume ratio and then analyzed using the setting Immune Cells—Low RBC.
(§4) For GD2-CAR and GPC2-CAR detection, an anti-14g2a idiotype or recombinant human Glypican-2 protein (R&D systems) were fluorescently labeled with the DyLight 650 Microscale Antibody Labeling kit (Thermo Fisher). For intracellular staining CAR+ T cells were co-cultured with respective tumor cell lines at a 1:4 ratio. Prior to co-cultivation the protein transport inhibitor Monensin (BD) and the anti-CD107a antibody (Biolegend) were added to T cell samples. […]

non-activated T cells = assay: CRISPR knock-in of GD2-CAR in non-activated T cells; type: cell-based, human; conditions: HITI1c vs HDR2c, day 10
Protocol: as §2, §3
as §4, with “ratio.” for “ratio. Prior to co-cultivation the protein transport inhibitor Monensin (BD) and the anti-CD107a antibody (Biolegend) were added to T cell samples.”

primary human T cells [2] = assay: Titration of MTX in primary human T cells; type: cell-based
Protocol: as §1
To enable enrichment of the desired CAR+ knock-in population we optimized CEMENT based selection by comparing three different clinically relevant enrichment markers: Dihydrofolate Reductase^L22F/F31S (DHFR-FS), truncated Epidermal Growth Factor Receptor (tEGFR), and truncated Nerve Growth Factor Receptor (tNGFR)^9,17,33. All three enrichment markers were successfully co-inserted along with the GD2-CAR resulting in total transgene sizes of ^~2.5-3 kb. CRISPR knock-in CAR-T cells were either enriched using the FDA approved drug MTX which was diluted from a 10 mM stock in media to result in a 50 nM final concentration. […]

primary human T cells [3] = assay: HITI/CEMENT knock-in CAR-T cell manufacturing at clinical scale; type: cell-based; conditions: end of MTX treatment (day 7), 50 nM
Protocol: as §1
On day 2, unless otherwise indicated, Dynabeads were magnetically removed and cells were counted prior to electroporation on the Maxcyte GTx. For electroporation cells were washed once in Electroporation Buffer (Maxcyte) and then resuspended at 2×10^8/ml for small scale experiments or in 2.4 ml for large-scale electroporation. […]
Cell counts and Viability were obtained using the Nexcelom Cellometer Auto 2000. Samples were mixed with AO/PI dye at a 1:1 volume ratio and then analyzed using the setting Immune Cells—Low RBC. […]

primary human T cells [4] = assay: HDR inhibitor (AZD0156) modulation of GD2-CAR integration via HITI and HDR; type: cell-based
Protocol: as §1
as §2, with “Post electroporation cells were rested in electroporation buffer either in the processing assembly (OC-25×3, OC-100×2) or in G-Rex 6-well plates (CL1.1) for 30 min. before being transferred into final G-Rex vessels.” left out

For “HITI1c: Knock-In template plasmid, one cut site: cut_site-EFS-Signalpeptide-14g2a-CD8TM-4-1BB-CD3z-STOP-bGH_ployA (SEQ ID NO: 3)”, which “Indels at both junctions of integrated plasmid construct” value (TRAC) is on record?
Its value is 6 bp.

What about the “knock-in frequencies (mean frequencies)” value (primary human T cells [1]) of the same compound?
Its value is 15.7%.

What about the “GD2-CAR T cell yields, HITI vs HDR” value (primary human T cells [1]; HITI1c vs HDR2c, day 10, average) of the same compound?
The value was ~ 3 fold.

And the “GD2-CAR T cell yield, one cut site vs two cut sites” value (primary human T cells [1]; HITI1c vs HITI2c, day 10)?
Its value is ~ 6 fold.

And the “insertion rates, HITI1c vs HDR2c” value (primary human T cells [1]; activated T cells, day 10)?
Its value is “comparable”.

What about the “CAR+ T cell yield in non-activated T cells” value (non-activated T cells) of the same compound?
The value was “higher”.

And the “insertion rates in non-activated T cells” value (non-activated T cells)?
Its value is “higher”.

What about the “viability in non-activated T cells” value (non-activated T cells) of the same compound?
Its value is “higher”.

How did the “knock-in frequencies (mean frequencies)” value (primary human T cells [1]) turn out when “HITI2c: Knock-In template plasmid, two cut sites: cut_site-EFS-Signalpeptide-14g2a-CD8TM-4-1BB-CD3z-STOP-bGH_ployA-cut_site (SEQ ID NO: 4)” was run?
The value was 9.3%.

What does the source list for `CN(Cc1cnc2nc(N)nc(N)c2n1)c1ccc(C(=O)N[C@@H](CCC(=O)O)C(=O)O)cc1` [MTX, methotrexate]?
concentration from which efficient killing occurs (primary human T cells [2]; n=2 donors, technical duplicates): ≥ 50 nM; concentration at which MTX exerts cytostatic effects in dividing T cells (primary human T cells [2]; primary human T cells post activation): 50 nM; effects of MTX on viability of edited vs. non-edited T cells (primary human T cells [3]): only non-edited cells were compromised in their viability

Which results are given for `CN(C)CCCOc1ccc(-c2ccc3ncc4c(c3c2)n(C2CCOCC2)c(=O)n4C)cn1` [AZD0156]?
knock-in efficiency of HDR2c when AZD0156 was added (primary human T cells [4]; HDR2c template, 18 hours treatment post electroporation, vs untreated): decreased knock-in efficiency; insertion rates for HITI1c when AZD0156 was added (primary human T cells [4]; HITI1c template, 18 hours treatment post electroporation, vs untreated): higher insertion rates; GD2-CAR T cell yields in HITI1c samples after AZD0156 treatment (primary human T cells [4]; compared to untreated controls): decreased GD2-CAR T cell yields
